Values joined by “and” are separate entries in the source; they are usually repeats but may differ in a detail not shown here. Equal values may be shown once.
Test system: Swiss mice, Sarcoma 180 sc, mean tumor weight T/C
Experiment: NCI In Vivo Anticancer Drug Screen. Data for tumor model Sarcoma 180 (subcutaneous) in Swiss mice
Settings: endpoint: mean tumor weight, higher = larger tumour
Outline: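 Antitumor activity is assessed in mice with transplantable tumors. Treated (T) and vehicle control (C) groups are compared on survival or tumor size.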

CC1(C)N=C(N)N=C(N)N1c1cccc(Cl)c1 was tested, and the T/C (dose: 3.97 mg/kg/injection, schedule: Q01DX007 (ip), vehicle: carboxymethylcellulose (CMC)) was 83 % of control, the T/C (dose: 6.95 mg/kg/injection, schedule: Q01DX007 (ip), vehicle: carboxymethylcellulose (CMC)) was 85 % of control and the T/C (dose: 13.9 mg/kg/injection, schedule: Q01DX007 (ip), vehicle: carboxymethylcellulose (CMC)) was 68 % of control. The T/C (dose: 27.8 mg/kg/injection, schedule: Q01DX007 (ip), vehicle: carboxymethylcellulose (CMC)) was 74 % of control.

CC(=O)OC(C)(C)/C=C/C(=O)[C@](C)(O)[C@H]1[C@H](O)C[C@@]2(C)[C@@H]3CC=C4[C@@H](C[C@H](O)C(=O)C4(C)C)[C@]3(C)C(=O)C[C@]12C was tested, and the T/C (dose: 0.4 mg/kg/injection, schedule: Q01DX007 (ip), vehicle: saline) was 58 % of control and the T/C (dose: 0.8 mg/kg/injection, schedule: Q01DX007 (ip), vehicle: saline) was 84 % of control.

With Cc1cc(N(CCCl)CCCl)ccc1N=Nc1ccccc1C(=O)O the T/C (dose: 5.3 mg/kg/injection, schedule: Q01DX007 (ip), vehicle: carboxymethylcellulose (CMC)) was 33 % of control, the T/C (dose: 8.0 mg/kg/injection, schedule: Q01DX007 (ip), vehicle: carboxymethylcellulose (CMC)) was 50 % of control and the T/C (dose: 12.0 mg/kg/injection, schedule: Q01DX007 (ip), vehicle: carboxymethylcellulose (CMC)) was 61 % of control. For the same molecule, the T/C (dose: 18.0 mg/kg/injection, schedule: Q01DX007 (ip), vehicle: carboxymethylcellulose (CMC)) was 27 % of control.

With O=C1N(Cl)C(=O)C(c2ccccc2)(c2ccc(F)cc2)N1Cl (centres undefined) the T/C (dose: 17.5 mg/kg/injection, schedule: Q#A X014 (ip), vehicle: methylcellulose (MC)) was 121 % of control, the T/C (dose: 42.5 mg/kg/injection, schedule: Q#A X014 (ip), vehicle: methylcellulose (MC)) was 88 % of control and the T/C (dose: 62.5 mg/kg/injection, schedule: Q#A X014 (ip), vehicle: methylcellulose (MC)) was 75 % of control.

In the case of O=C(Nc1ccc2cc(S(=O)(=O)O)ccc2c1)c1ccc(N=Nc2c(S(=O)(=O)O)cc3cc(S(=O)(=O)O)cc(NC(=O)c4ccccc4)c3c2O)cc1, the T/C (dose: 41.5 mg/kg/injection, schedule: Q#A X014 (ip), vehicle: methylcellulose (MC)) is reported as 52 % of control and 61 % of control and 77 % of control and the T/C (dose: 93.5 mg/kg/injection, schedule: Q#A X014 (ip), vehicle: methylcellulose (MC)) is reported as 44 % of control and 63 % of control.

O=C(Nc1ccc(N=Nc2ccc(S(=O)(=O)O)cc2)cc1)c1ccc(N=Nc2c(O)ccc3cc(S(=O)(=O)O)ccc23)cc1 was tested, and the T/C (dose: 12.5 mg/kg/injection, schedule: Q01DX007 (ip), vehicle: water) was 103 % of control, the T/C (dose: 25.0 mg/kg/injection, schedule: Q01DX007 (ip), vehicle: water) was 84 % of control and the T/C (dose: 50.0 mg/kg/injection, schedule: Q01DX007 (ip), vehicle: water) was 67 % of control.

For CC(=O)OCC1=CC2OC(=O)C3=COC(OC4OC(CO)C(O)C(O)C4O)C1C32 (centres undefined), the T/C (dose: 220.0 mg/kg/injection, schedule: Q01DX007 (ip), vehicle: carboxymethylcellulose (CMC)) was 67 % of control.

CC(=O)N(C)C was tested, and the T/C (dose: 62.0 mg/kg/injection, schedule: Q01DX007 (ip), vehicle: carboxymethylcellulose (CMC)) was 100 % of control, the T/C (dose: 125.0 mg/kg/injection, schedule: Q01DX007 (ip), vehicle: carboxymethylcellulose (CMC)) was 95 % of control and the T/C (dose: 500.0 mg/kg/injection, schedule: Q01DX007 (ip), vehicle: carboxymethylcellulose (CMC)) was 65 % of control. The T/C (dose: 750.0 mg/kg/injection, schedule: Q01DX007 (ip), vehicle: saline) was 104 % of control and the T/C (dose: 1000.0 mg/kg/injection, schedule: Q01DX007 (ip), vehicle: saline) was 70 % of control.

With COc1cc2c3c(c4ccc(OC)c(OC)c4c2cc1OC)CN1CCC[C@@H]1C3 the T/C (dose: 12.0 mg/kg/injection, schedule: Q01DX007 (ip), vehicle: water) was 21 % of control.

With CSc1nc(C)c(Br)c(Sc2nc(N)nc3nc[nH]c23)n1 the T/C (dose: 4.0 mg/kg/injection, schedule: Q01DX007 (ip), vehicle: carboxymethylcellulose (CMC)) was 91 % of control, the T/C (dose: 5.0 mg/kg/injection, schedule: Q01DX007 (ip), vehicle: carboxymethylcellulose (CMC)) was 84 % of control and the T/C (dose: 5.5 mg/kg/injection, schedule: Q#A X014 (ip), vehicle: carboxymethylcellulose (CMC)) was 43 % of control. The T/C (dose: 5.5 mg/kg/injection, schedule: Q#A X014 (ip), vehicle: methylcellulose (MC)) was 24 % of control, the T/C (dose: 6.0 mg/kg/injection, schedule: Q01DX007 (ip), vehicle: carboxymethylcellulose (CMC)) was 90 % of control and the T/C (dose: 6.2 mg/kg/injection, schedule: Q01DX007 (ip), vehicle: carboxymethylcellulose (CMC)) was 77 % of control. For the same molecule, the T/C (dose: 7.0 mg/kg/injection, schedule: Q01DX007 (ip), vehicle: carboxymethylcellulose (CMC)) was 66 % of control, the T/C (dose: 8.5 mg/kg/injection, schedule: Q#A X014 (ip), vehicle: carboxymethylcellulose (CMC)) was 33 % of control and the T/C (dose: 8.5 mg/kg/injection, schedule: Q#A X014 (ip), vehicle: methylcellulose (MC)) was 57 % of control. The T/C (dose: 11.0 mg/kg/injection, schedule: Q01DX007 (ip), vehicle: carboxymethylcellulose (CMC)) was 74 % of control, the T/C (dose: 12.5 mg/kg/injection, schedule: Q01DX007 (ip), vehicle: carboxymethylcellulose (CMC)) was 69 % of control and the T/C (dose: 12.5 mg/kg/injection, schedule: Q#A X014 (ip), vehicle: carboxymethylcellulose (CMC)) was 24 % of control. For the same molecule, the T/C (dose: 12.5 mg/kg/injection, schedule: Q#A X014 (ip), vehicle: methylcellulose (MC)) was 16 % of control, the T/C (dose: 17.0 mg/kg/injection, schedule: Q01DX007 (ip), vehicle: carboxymethylcellulose (CMC)) was 31 % of control and the T/C (dose: 18.5 mg/kg/injection, schedule: Q#A X014 (ip), vehicle: carboxymethylcellulose (CMC)) was 18 % of control. For the same molecule, the T/C (dose: 18.5 mg/kg/injection, schedule: Q#A X014 (ip), vehicle: methylcellulose (MC)) was 7 % of control, the T/C (dose: 25.0 mg/kg/injection, schedule: Q01DX007 (ip), vehicle: carboxymethylcellulose (CMC)) was 20 % of control and the T/C (dose: 37.0 mg/kg/injection, schedule: Q01DX007 (ip), vehicle: carboxymethylcellulose (CMC)) was 22 % of control. The T/C (dose: 40.0 mg/kg/injection, schedule: Q01DX007 (ip), vehicle: carboxymethylcellulose (CMC)) was 52 % of control and the T/C (dose: 60.0 mg/kg/injection, schedule: Q01DX007 (ip), vehicle: carboxymethylcellulose (CMC)) was 46 % of control.

CCCCN(CCCC)C(=O)c1[nH]cnc1N was tested, and the T/C (dose: 100.0 mg/kg/injection, schedule: Q01DX007 (ip), vehicle: carboxymethylcellulose (CMC)) was 55 % of control, the T/C (dose: 200.0 mg/kg/injection, schedule: Q01DX007 (ip), vehicle: carboxymethylcellulose (CMC)) was 58 % of control and the T/C (dose: 250.0 mg/kg/injection, schedule: Q01DX007 (ip), vehicle: carboxymethylcellulose (CMC)) was 87 % of control. The T/C (dose: 375.0 mg/kg/injection, schedule: Q01DX007 (ip), vehicle: carboxymethylcellulose (CMC)) was 57 % of control.

With CC(=O)[C@H]1CC[C@H]2[C@@H]3CCC4=CC(=O)CC[C@]4(C)[C@H]3CC[C@]12C the T/C (dose: 125.0 mg/kg/injection, schedule: Q01DX007 (sc), vehicle: steriod suspending solution) was 89 % of control, the T/C (dose: 250.0 mg/kg/injection, schedule: Q01DX007 (sc), vehicle: steriod suspending solution) was 76 % of control and the T/C (dose: 500.0 mg/kg/injection, schedule: Q01DX007 (sc), vehicle: steriod suspending solution) was 61 % of control. The T/C (dose: 1000.0 mg/kg/injection, schedule: Q01DX007 (sc), vehicle: steriod suspending solution) was 79 % of control.

In the case of C[C@]12C=CC(=O)C=C1CC[C@@H]1[C@@H]2[C@@H](O)C[C@@]2(C)[C@H]1CC[C@]2(O)C(=O)CF, the T/C (dose: 6.0 mg/kg/injection, schedule: Q01DX007 (sc), vehicle: steriod suspending solution) is reported as 77 % of control, the T/C (dose: 9.0 mg/kg/injection, schedule: Q01DX007 (sc), vehicle: steriod suspending solution) is reported as 91 % of control and the T/C (dose: 13.3 mg/kg/injection, schedule: Q01DX007 (sc), vehicle: steriod suspending solution) is reported as 82 % of control. For the same molecule, the T/C (dose: 20.0 mg/kg/injection, schedule: Q01DX007 (sc), vehicle: steriod suspending solution) was 35 % of control and 49 % of control and 54 % of control, the T/C (dose: 45.0 mg/kg/injection, schedule: Q01DX007 (sc), vehicle: steriod suspending solution) was 32 % of control and the T/C (dose: 70.0 mg/kg/injection, schedule: Q01DX007 (sc), vehicle: steriod suspending solution) was 27 % of control and 32 % of control and 36 % of control. The T/C (dose: 107.0 mg/kg/injection, schedule: Q01DX007 (sc), vehicle: steriod suspending solution) was 32 % of control, the T/C (dose: 158.0 mg/kg/injection, schedule: Q01DX007 (sc), vehicle: steriod suspending solution) was 36 % of control and the T/C (dose: 160.0 mg/kg/injection, schedule: Q01DX007 (sc), vehicle: steriod suspending solution) was 24 % of control. For the same molecule, the T/C (dose: 352.0 mg/kg/injection, schedule: Q01DX007 (sc), vehicle: steriod suspending solution) was 52 % of control, the T/C (dose: 358.0 mg/kg/injection, schedule: Q01DX007 (sc), vehicle: steriod suspending solution) was 33 % of control and the T/C (dose: 360.0 mg/kg/injection, schedule: Q01DX007 (sc), vehicle: steriod suspending solution) was 33 % of control. The T/C (dose: 537.0 mg/kg/injection, schedule: Q01DX007 (sc), vehicle: steriod suspending solution) was 39 % of control and 56 % of control, the T/C (dose: 540.0 mg/kg/injection, schedule: Q01DX007 (sc), vehicle: steriod suspending solution) was 20 % of control and 22 % of control and the T/C (dose: 801.0 mg/kg/injection, schedule: Q01DX007 (sc), vehicle: steriod suspending solution) was 49 % of control. The T/C (dose: 1202.0 mg/kg/injection, schedule: Q01DX007 (sc), vehicle: steriod suspending solution) was 61 % of control.
